The values below come from ChEMBL document CHEMBL4371023, “Synthesis of new betulinic acid/betulin-derived dimers and hybrids with potent antimalarial and antiviral activities” (Bioorg Med Chem, 2019).

Test [1] relates to Plasmodium falciparum. Kind of test: Antimalarial activity against ring stage Plasmodium falciparum 3D7 infected in type A-positive human erythrocytes after 72 hrs by SYBR green 1 dye-based fluorescence assay. The class given is functional, organism-based. Particulars: 3D7, 72 h.
The subject of test [2] is Human betaherpesvirus 5. Kind of test: Potency index, ratio of betulinic acid EC50 to compound EC50 for antiviral activity against recombinant HCMV AD169 expressing GFP infected in human foreskin fibroblasts. Format: functional, strain AD169.
The test system of test [3] is Plasmodium falciparum. Kind of test: Potency index, ratio of betulinic acid EC50 to compound EC50 for antimalarial activity against ring stage Plasmodium falciparum 3D7 infected in type A-positive human erythrocytes. Format: functional.
In test [4] the test system is Human betaherpesvirus 5. Kind of test: Antiviral activity against recombinant HCMV AD169 expressing GFP infected in human foreskin fibroblasts measured after 7 days by GFP-based multi-round replication assay. Format: functional, organism-based. Particulars: Human betaherpesvirus 5, strain AD169, 168 h.
For test [5], the system named is Human betaherpesvirus 5. Description: Potency index, ratio of artesunic acid EC50 to compound EC50 for antiviral activity against recombinant HCMV AD169 expressing GFP infected in human foreskin fibroblasts. Format: functional, strain AD169.
The subject of test [6] is Plasmodium falciparum. Kind of test: Potency index, ratio of betulin EC50 to compound EC50 for antimalarial activity against ring stage Plasmodium falciparum 3D7 infected in type A-positive human erythrocytes. The class given is functional.

In the case of `C=C(C)[C@@H]1CC[C@]2(C(=O)O)CC[C@]3(C)[C@H](CC[C@@H]4[C@@]5(C)CC[C@H](OC(=O)CCC(=O)O[C@@H]6O[C@@H]7O[C@@]8(C)CC[C@H]9[C@H](C)CC[C@@H]([C@H]6C)[C@@]79OO8)C(C)(C)[C@@H]5CC[C@]43C)[C@@H]12`, the EC50 in the test on Plasmodium falciparum [1] amounted to 85 nM; in the test with Human betaherpesvirus 5 [4], 240 nM. The “Ratio EC50” value with Human betaherpesvirus 5 [2] is 15; in the test with Plasmodium falciparum [3] it was 16; with Human betaherpesvirus 5 [5], 23.

In the test with Plasmodium falciparum [1], `CCN(CC)CCCC(C)Nc1ccnc2cc(Cl)ccc12` (stereo not given) [CHLOROQUINE PHOSPHATE] displayed an EC50 of 8.3 nM.

On to `C=C(C)[C@@H]1CC[C@]2(CO)CC[C@]3(C)[C@H](CC[C@@H]4[C@@]5(C)CC[C@H](O)C(C)(C)[C@@H]5CC[C@]43C)[C@@H]12` [BETULIN], for which the EC50 in the test with Plasmodium falciparum [1] is 3940 nM; in the test on Human betaherpesvirus 5 [4] it was 1990 nM.

`C=C(C)[C@@H]1CC[C@]2(C(=O)O)CC[C@]3(C)[C@H](CC[C@@H]4[C@@]5(C)CC[C@H](O)C(C)(C)[C@@H]5CC[C@]43C)[C@@H]12` [BETULINIC ACID]: the concentration for a half-maximal effect (EC50) in the test with Plasmodium falciparum [1] is 1420 nM; with Human betaherpesvirus 5 [4], 3620 nM.

Consider `C=C(C)[C@@H]1CC[C@]2(COC(=O)CCC(=O)O[C@@H]3O[C@@H]4O[C@@]5(C)CC[C@H]6[C@H](C)CC[C@@H]([C@H]3C)[C@@]46OO5)CC[C@]3(C)[C@H](CC[C@@H]4[C@@]5(C)CC[C@H](O)C(C)(C)[C@@H]5CC[C@]43C)[C@@H]12`, for which the EC50 with Plasmodium falciparum [1] worked out at 255 nM; with Human betaherpesvirus 5 [4] it was 880 nM. In the test with Plasmodium falciparum [6], the “Ratio EC50” value was found to be 20.

Turning to `C[C@H]1[C@@H](O)O[C@@H]2O[C@@]3(C)CC[C@H]4[C@H](C)CC[C@@H]1[C@@]24OO3` [ARTENIMOL], the EC50 in the test on Plasmodium falciparum [1] was 2.6 nM; with Human betaherpesvirus 5 [4], more than 10000 nM.
